In ChEMBL document CHEMBL1201862, “PubChem BioAssay data set” (2004):
Calls of active or inactive are those of the source. Rule as the data show it, for most assays here: actives have a measured EC50 and inactives only a lower limit.

Key:
[1] = Luminescence Cell-Based Dose Retest to Confirm Inhibitors of Cancer Stem Cells. [Related pubchem assays (depositor defined):AID2717, AID2721]; type: functional; details: Homo sapiens
[2] = system: INS1; test: beta cell apoptosis inhibitors, cytokine rescue, dose response, luminescence, retest (AID 449756); type: functional, cell-based; details: Rattus norvegicus;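 also: cell death triggered by IL-1 beta plus TNF-alpha plus IFN-gamma mixture; protective hits raise ATP signal compared with cytokine alone wells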
[3] = system: H4; test: Luminescence Cell-Based Dose Response HTS to Identify Activators of 5'UTR Stem-Loop Driven Prion Protein mRNA Translation in H4 Neuroglioblastoma Cells. [Related pubchem assays: 1829 (Project Summary), 1814 (Primary HTS)]; type: functional; details: Homo sapiens
[4] = Luminescence Cell-Based Dose Response HTS to Identify Activators of Luciferase Translation or Activity in H4 […] Cells. [Related pubchem assays: 1829 (Project Summary), 1814 (Primary HTS)]; type: functional
[5] = system: Streptococcus sp. 'group A'; test: growth inhibition of control SK(-) GAS strain, dose response, counter-screen for streptokinase expression inhibitor project, luminescence, kanamycin, BacTiterGlo, confirmation (AID 1900); type: functional, organism-based
[6] = system: Streptococcus; test: Group A Streptococcus viability loss, dose response, counter-screen for streptokinase expression inhibitor project, luminescence, BacTiterGlo (AID 1915); type: functional, organism-based;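 also: potency for reduction of bacterial viability or growth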
[7] = target: T1, Streptokinase A (Streptococcus pyogenes serotype M1, UniProt P10520); test: S. pyogenes streptokinase expression inhibitors, potency, dose response, plasminogen activation absorbance, OD405 (AID 1914); type: functional, Streptococcus pyogenes M1 GAS;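 also: secreted streptokinase activity via plasminogen activation per viability signal from cell pellet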
T1 sequence (P10520 whole entry): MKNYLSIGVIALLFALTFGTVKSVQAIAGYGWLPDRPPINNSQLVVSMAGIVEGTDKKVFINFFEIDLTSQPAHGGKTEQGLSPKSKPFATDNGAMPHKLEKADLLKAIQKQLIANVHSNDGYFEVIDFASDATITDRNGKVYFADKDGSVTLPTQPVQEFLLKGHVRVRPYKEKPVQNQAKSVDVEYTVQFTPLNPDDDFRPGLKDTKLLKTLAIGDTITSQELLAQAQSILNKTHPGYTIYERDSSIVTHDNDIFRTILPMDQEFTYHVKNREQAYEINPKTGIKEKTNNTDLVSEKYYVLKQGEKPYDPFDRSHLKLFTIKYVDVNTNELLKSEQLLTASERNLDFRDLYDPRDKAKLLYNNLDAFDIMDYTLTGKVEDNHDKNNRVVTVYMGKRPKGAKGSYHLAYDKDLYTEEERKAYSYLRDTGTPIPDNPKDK

[8] = target: T2, Replicative DNA helicase DnaB (Mycobacterium tuberculosis, UniProt P9WMR3); test: DnaB intein splicing inhibitors, dose response, biochemical, cell-free fluorescence (AID 449749); type: functional
T2 sequence (P9WMR3 whole entry): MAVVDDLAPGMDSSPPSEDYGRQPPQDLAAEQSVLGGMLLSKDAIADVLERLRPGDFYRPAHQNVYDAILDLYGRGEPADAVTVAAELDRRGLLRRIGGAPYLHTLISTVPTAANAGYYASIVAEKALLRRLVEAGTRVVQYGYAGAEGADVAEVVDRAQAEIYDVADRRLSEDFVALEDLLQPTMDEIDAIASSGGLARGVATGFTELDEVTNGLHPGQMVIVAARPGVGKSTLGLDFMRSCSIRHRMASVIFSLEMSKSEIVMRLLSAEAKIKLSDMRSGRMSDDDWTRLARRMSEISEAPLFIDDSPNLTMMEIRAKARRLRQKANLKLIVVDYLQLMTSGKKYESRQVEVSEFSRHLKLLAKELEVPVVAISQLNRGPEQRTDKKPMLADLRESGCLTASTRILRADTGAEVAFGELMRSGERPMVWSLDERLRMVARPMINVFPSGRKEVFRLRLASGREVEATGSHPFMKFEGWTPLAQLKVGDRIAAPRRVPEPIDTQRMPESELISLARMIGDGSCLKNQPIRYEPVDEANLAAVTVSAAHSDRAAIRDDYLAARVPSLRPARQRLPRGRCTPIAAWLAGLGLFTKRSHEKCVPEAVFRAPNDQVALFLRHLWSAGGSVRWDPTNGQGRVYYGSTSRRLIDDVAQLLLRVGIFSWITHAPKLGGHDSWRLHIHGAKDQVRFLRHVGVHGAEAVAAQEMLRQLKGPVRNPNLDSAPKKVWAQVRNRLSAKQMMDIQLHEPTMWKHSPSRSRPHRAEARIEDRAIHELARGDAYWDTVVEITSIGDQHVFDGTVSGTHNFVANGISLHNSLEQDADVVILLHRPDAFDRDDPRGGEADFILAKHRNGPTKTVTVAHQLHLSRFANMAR

[9] = target: T3, Protein RecA (Mycobacterium tuberculosis, UniProt P9WHJ3); test: Fluorescence Cell-Free Homogeneous Dose Retest to Identify Inhibitors of RecA-Intein Splicing Activity. [Related pubchem assays (depositor defined):AID2097, AID2223, AID489010, AID492950]; type: functional
T3 sequence (P9WHJ3 whole entry): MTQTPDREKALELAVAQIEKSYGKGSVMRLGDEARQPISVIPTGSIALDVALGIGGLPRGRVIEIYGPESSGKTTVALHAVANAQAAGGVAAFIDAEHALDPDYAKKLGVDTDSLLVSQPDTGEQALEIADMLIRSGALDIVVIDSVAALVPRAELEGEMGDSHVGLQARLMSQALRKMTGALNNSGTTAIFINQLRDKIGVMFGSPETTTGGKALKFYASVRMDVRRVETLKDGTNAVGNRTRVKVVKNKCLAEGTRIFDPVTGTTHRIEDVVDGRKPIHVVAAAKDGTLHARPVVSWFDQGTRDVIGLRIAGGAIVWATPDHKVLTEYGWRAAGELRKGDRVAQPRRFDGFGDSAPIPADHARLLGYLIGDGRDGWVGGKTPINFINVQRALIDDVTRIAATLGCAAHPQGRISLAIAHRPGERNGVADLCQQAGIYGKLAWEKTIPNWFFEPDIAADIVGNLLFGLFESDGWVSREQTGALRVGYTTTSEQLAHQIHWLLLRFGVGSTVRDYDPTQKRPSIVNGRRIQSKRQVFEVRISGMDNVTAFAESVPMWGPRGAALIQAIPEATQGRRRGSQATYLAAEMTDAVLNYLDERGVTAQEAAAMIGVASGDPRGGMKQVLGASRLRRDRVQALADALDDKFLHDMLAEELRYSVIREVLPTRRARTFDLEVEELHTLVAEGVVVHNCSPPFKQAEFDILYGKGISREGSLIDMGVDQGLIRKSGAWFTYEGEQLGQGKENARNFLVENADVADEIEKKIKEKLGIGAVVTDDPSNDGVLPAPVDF

[10] = target: T4, RNA-binding protein pos-1 (Caenorhabditis elegans, UniProt G5EF15); test: inhibitors of POS-1/mex-3 RNA binding, dose response, biochemical, fluorescence polarization (AID 1964);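 also: purified POS-1 fused to maltose binding protein made in E. coli; potency of compounds blocking POS-1 binding to fluorescent RNA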
T4 sequence (G5EF15 whole entry): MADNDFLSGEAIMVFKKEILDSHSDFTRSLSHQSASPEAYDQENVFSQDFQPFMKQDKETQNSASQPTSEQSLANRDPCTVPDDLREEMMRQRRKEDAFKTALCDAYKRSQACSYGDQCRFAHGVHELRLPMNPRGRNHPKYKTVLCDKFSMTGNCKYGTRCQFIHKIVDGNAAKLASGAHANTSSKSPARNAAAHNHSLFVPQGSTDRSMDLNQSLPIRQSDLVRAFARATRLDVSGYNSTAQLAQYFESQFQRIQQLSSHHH

[11] = target: T5, Zinc finger protein mex-5 (Caenorhabditis elegans, UniProt Q9XUB2); test: MEX-5/TCR-2 RNA interaction inhibitors, dose response, biochemical, C. elegans, fluorescence polarization (AID 1960)
T5 sequence (Q9XUB2 whole entry): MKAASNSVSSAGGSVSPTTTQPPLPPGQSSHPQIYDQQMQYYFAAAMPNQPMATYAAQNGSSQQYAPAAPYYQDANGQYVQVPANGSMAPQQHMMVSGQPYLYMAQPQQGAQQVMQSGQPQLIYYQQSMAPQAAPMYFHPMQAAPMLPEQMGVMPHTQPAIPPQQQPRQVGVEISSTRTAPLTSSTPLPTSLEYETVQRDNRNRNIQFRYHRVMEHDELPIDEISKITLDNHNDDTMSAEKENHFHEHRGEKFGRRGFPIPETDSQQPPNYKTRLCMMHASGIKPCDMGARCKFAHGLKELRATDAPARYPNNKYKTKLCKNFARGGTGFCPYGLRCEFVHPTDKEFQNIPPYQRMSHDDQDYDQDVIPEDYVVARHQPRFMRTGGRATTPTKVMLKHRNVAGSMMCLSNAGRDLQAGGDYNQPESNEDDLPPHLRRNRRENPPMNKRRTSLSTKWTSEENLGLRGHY

[12] = target: Paired box protein Pax-8 (Homo sapiens, UniProt Q06710); test: inhibitors of PAX8-driven TPO luciferase reporter, dose response, RMG-I cells, cherry-pick (AID 687027); type: functional, cell-based;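 also: luciferase reporter driven by Pax8 target thyroperoxidase promoter measured by SteadyGlo luminescence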
Sequence of Paired box protein Pax-8 (Q06710 whole entry): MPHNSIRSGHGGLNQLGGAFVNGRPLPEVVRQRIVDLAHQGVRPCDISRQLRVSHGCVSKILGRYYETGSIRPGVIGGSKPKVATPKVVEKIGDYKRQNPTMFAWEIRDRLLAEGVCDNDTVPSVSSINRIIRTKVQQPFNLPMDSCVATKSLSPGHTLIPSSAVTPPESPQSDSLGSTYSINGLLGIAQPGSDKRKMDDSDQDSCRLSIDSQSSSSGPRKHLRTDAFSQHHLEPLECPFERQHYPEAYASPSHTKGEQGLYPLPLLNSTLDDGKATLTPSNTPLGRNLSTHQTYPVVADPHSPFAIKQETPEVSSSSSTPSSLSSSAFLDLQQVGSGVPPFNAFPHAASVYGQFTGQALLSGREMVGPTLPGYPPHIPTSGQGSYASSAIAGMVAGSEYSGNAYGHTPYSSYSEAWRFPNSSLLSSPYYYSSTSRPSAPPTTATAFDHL

Compound: COc1ccc2nc(N=Nc3ccc(O)c4ccccc34)sc2c1
- AC50 [1]: 1.73 µM (active)
- AC50 [2]: 2.09 µM (active)

Compound: Cc1cccc(Nc2nc3c(s2)CCCC3)c1
- EC50 [3]: 3.41 µM (active)
- EC50 [4]: 2.59 µM (active)

Compound: O=C1c2ccccc2C2=Nc3ccccc3SC(c3ccc(Cl)cc3)C12 (stereo unspecified)
- AC50 [1]: 5.23 µM (active)
- AC50 [2]: 14.1 µM (active)
- EC50 [5]: 2.87 µM (active)
- EC50 [6]: 4.58 µM (active)
- EC50 [7]: > 150 µM (not active)

Compound: O=C1N=NC2=C1c1c3ccccc3c(O)n1CC2
- AC50 [8]: 15.6 µM (active)
- EC50 [9]: 7.63 µM (active)

Compound: Cc1cc2nc(Sc3c([N+](=O)[O-])nc(C)n3Cc3ccccc3)[nH]c2cc1C
- AC50 [8]: 11.3 µM (active)
- EC50 [9]: 7.56 µM (active)

Compound: Cc1ccc(/C=C2\C(=O)NC(=O)N(CC3CCCO3)C2=O)s1 (stereo unspecified)
- EC50 [10]: > 300 µM (not active)
- EC50 [11]: > 300 µM (not active)

Compound: O=C1NC(=O)/C(=C2\C(=O)Nc3ccc(Br)cc32)S1
- EC50 [10]: 17 µM (active)
- EC50 [11]: 11 µM (active)

Compound: Cc1ccc(-c2ccc(CCC(=O)O)n2-c2ccc(C(=O)O)cc2)cc1
- EC50 [10]: > 300 µM (not active)
- EC50 [11]: > 300 µM (not active)

Compound: CCOc1ccc(C(CN2CCOCC2)C(C)=O)cc1OC (stereo unspecified)
- AC50 [12]: 1.68 µM (active)

Compound: COC(/C(=N/O)c1ccc(Cl)cc1)c1ccccc1 (stereo unspecified)
- AC50 [2]: 2.72 µM (active)

Compound: O=C(CN1CCCc2ccccc21)N/N=C/c1ccccc1O
- AC50 [2]: 4.81 µM (active)

Compound: O=C(N/N=C/c1ccc([N+](=O)[O-])o1)c1ccccc1NS(=O)(=O)c1cccs1
- AC50 [8]: > 380 µM (inactive)
- EC50 [9]: 125 µM (active)

Compound: Cc1cc(/C=N/n2cnnc2)c(C)n1-c1ccc(C(=O)O)cc1
- EC50 [10]: > 300 µM (not active)
- EC50 [11]: > 300 µM (not active)
